Results: patent publication US20260049104A1, “PEPTIDES WITH ANTIMICROBIAL PROPERTIES” (priority 2022, published 2026)
Values after ≈ are worked out from the molar mass of the structure shown. Like-named read-outs stand apart in the source and are kept apart here. No end group written: not given here.

Experiments:
Bacillus subtilis = assay type: cell-based; details: Bacillus subtilis ATCC 6633
Description: (§1) The experiments were repeated three times.

Morganella morganii = assay type: cell-based
Description: as §1

Pseudomonas aeruginosa = assay type: cell-based
Description: as §1

Acinetobacter baumannii = tested on: Acinetobacter baumannii
Protocol: (§2) MIC screening of the peptides against a panel of ATCC and clinical strains was performed using broth microdilution method.^1 Briefly, peptides stock solutions in DMSO (0.1/G TFA) were diluted into Mueller Hinton Broth (MHB), followed by two-fold serial dilution in a 96-well plate. Bacteria culture in mid-log phase was diluted into MHB to yield […] colony-forming units (CFU)/mL. Equal volume of the starting inoculum was added to the peptide samples, then incubated for 18-20 h (37° C., 120 rpm). OD600 of the samples was then measured using Tecan Infinite M200 (TECAN, Männedorf, Switzerland). MIC is defined as the lowest peptide concentration to achieve more than 90% reduction in OD600 relative to the drug-free control. The experiments were repeated three times. Colistin-resistant clinical isolates are a kind gift from Dr. Jeanette Koh (National University Hospital, Singapore). Multidrug-resistant clinical isolates are a kind gift from Dr. Lakshminarayanan Rajamani (Singapore Eye Research Institute, Singapore).
(§3) Kanamycin and ampicillin were used as antibacterial control agents. […] Then, sequential 2-fold serial dilutions of the mix were diluted in 50 μL MH broth and 50 μL cell cultures were added to wells. […] All assays were carried out in triplicate.

Enterobacter cloacae = tested on: Enterobacter cloacae
Protocol: as §2, §3

Escherichia coli = tested on: Escherichia coli
Protocol: as §2, §3

Klebsiella pneumoniae = tested on: Klebsiella pneumoniae
Protocol: as §2, §3

Staphylococcus aureus = tested on: Staphylococcus aureus
Protocol: as §2, §3

Bacillus cereus = Bacillus cereus ATCC 11778
Protocol: as §2

Enterobacteriaceae = tested on: Enterobacteriaceae
Protocol: as §2

Salmonella entereditis = Salmonella entereditis ATCC 13076
Protocol: as §2

Salmonella typhimurium = Salmonella typhimurium ATCC 14028
Protocol: as §2

Shigella flexneri = Shigella flexneri M90T
Protocol: as §2

E. coli M6 [1] = details: E. coli M6, over 24 h
Protocol: Peptides stock solutions were diluted into MHB to desired concentrations. Bacteria culture in mid-log phase was diluted into MHB to yield 10^6 CFU/mL. The mixture was incubated at 37° C. with shaking. At each time point, 10 μL of the sample was drawn out and subjected to ten-fold serial dilution. 20 μL of relevant dilutions was dropped onto MHA plate using the drop plate method. The plate was incubated for 18-20 h at 37° C. Colony number was counted, and used for calculating the CFU/mL according to the equation:
CFU/mL=Colony count×50×dilution factor

E. coli M6 [2] = tested on: E. coli M6
Protocol: Resistance development of E. coli M6 against xenorceptide A2 was assessed by serial passaging of the bacteria in broth containing subinhibitory concentrations of the peptide. In brief, bacteria culture at mid-log phase was diluted to 10^5-10^6 CFU/mL in MHB containing 0.25×, 0.5×, 1×, 2×, and 4×MIC of the peptide. […] A new set of peptide concentration range was added to the cultures based on the latest MIC. This process was repeated over 14 days for three independent starting cultures.

E. coli M6 [3] = tested on: E. coli M6; remark: listed apart in the source
Protocol: Female C57BL/6NTac mice aged 6-8 weeks were acquired from InVivos Pte Ltd (Singapore, Singapore). Solutions for injections were prepared fresh in pharmaceutical grade saline and filter-sterilized. Murine peritonitis model was established according to literature. Briefly, healthy mice were rendered neutropenic by administering i.p. injection (0.5 mL) of cyclophosphamide on day −4 (150 mg/kg) and day −1 (100 mg/kg). On day 0, mice were infected with E. coli M6 (10^9 CFU/mL) through i.p. injection (0.1 mL). […] At 2 h post-treatment, mice were humanely euthanized by carbon dioxide asphyxiation and cervical dislocation. Sterile PBS (3 mL) was injected into the peritoneal cavity, followed by abdominal massage and collection of peritoneal fluid (1-2 mL). Blood (0.3-0.5 mL) was collected through cardiac puncture. Liver, spleen, and kidney were surgically removed and stored in 0.1% Triton X-100 (in PBS). Tissue homogenization was performed using gentleMACS dissociator (Miltenyi Biotec, Germany) by following a published protocol. Cell aggregates were removed using a 30 μm mesh MACS SmartStrainer (Miltenyi Biotec). Blood, peritoneal fluid, and tissue homogenates were plated on LB agar and incubated overnight for colony counting.

Enterococcus faecalis = assay type: cell-based; details: strain not given, Table 14, preliminary screening
Protocol: MIC values for compounds (1-11) were assessed using 96-well plate format with Mueller Hinton (MH) broth, using the two-fold dilution method, previously reported in standard methods provided by Clinical and Laboratory Standards S8 Institute (CLSI). Kanamycin and ampicillin were used as antibacterial control agents. According to the reference, the compounds (1-11) were first dissolved in DMSO+0.1% TFA at a concentration of 3.2 mg/mL and 4 μL was serially diluted in 96 μL of MH broth. Then, sequential 2-fold serial dilutions of the mix were diluted in 50 μL MH broth and 50 μL cell cultures were added to wells. […] All assays were carried out in triplicate.

[4] = tested on: Gram-positive and Gram-negative bacteria; details: panel of E. coli, K. pneumoniae, E. cloacae, A. baumannii, E. faecalis and S. aureus; preliminary screening
Protocol: as §2, §3

[5] = E. coli M6, sub-inhibitory concentrations, over two weeks
[6] = 50 mg/kg single i.p. dose, 5 h post-treatment, neutropenic mice infected with E. coli M6

CC(C)[C@@H]1NC(=O)[C@@H](N)Cc2c[nH]c3cc(ccc23)[C@H](C(N)=O)[C@@H](C(=O)N[C@@H](C)C(=O)N[C@H]2Cc3cccc(c3)[C@H](CCNC(=N)N)[C@@H](C(=O)N[C@H]3Cc4c[nH]c5cc(ccc45)[C@H](CCCN)[C@@H](C(=O)N[C@@H](CO)C(=O)N[C@@H](Cc4ccccc4)C(=O)O)NC(=O)[C@H](CO)NC3=O)NC(=O)[C@H](C)NC2=O)NC1=O [xenorceptide A2]
MIC (Bacillus subtilis): >64 µg/mL | MIC (Morganella morganii; Morganella morganii ATCC 25830): 32 µg/mL (≈ 21.4 µM) | MIC (Morganella morganii; Morganella morganii CRE1001): 32 µg/mL (≈ 21.4 µM) | MIC (Pseudomonas aeruginosa; Pseudomonas aeruginosa ATCC 9027): 64 µg/mL (≈ 42.9 µM) | MIC (Pseudomonas aeruginosa; Pseudomonas aeruginosa DM4150R): 64 µg/mL (≈ 42.9 µM) | MIC (Pseudomonas aeruginosa; Pseudomonas aeruginosa DM23376): >64 µg/mL | MIC (Pseudomonas aeruginosa; Pseudomonas aeruginosa DR4877/07): 64 µg/mL (≈ 42.9 µM) | MIC (Pseudomonas aeruginosa; Pseudomonas aeruginosa DR5790/07): 64 µg/mL (≈ 42.9 µM) | MIC (Acinetobacter baumannii; Acinetobacter baumannii ACBA1001): 32 µg/mL (≈ 21.4 µM) | MIC (Acinetobacter baumannii; Acinetobacter baumannii ACBA1002): 32 µg/mL (≈ 21.4 µM) | MIC (Acinetobacter baumannii; Acinetobacter baumannii ACBA1003): 32 µg/mL (≈ 21.4 µM) | MIC (Acinetobacter baumannii; Acinetobacter baumannii ACBA1004): 64 µg/mL (≈ 42.9 µM) | MIC (Acinetobacter baumannii; Acinetobacter baumannii ATCC 19606): >64 µg/mL | MIC (Enterobacter cloacae; Enterobacter cloacae CRE1010): 4 µg/mL (≈ 2.68 µM) | MIC (Enterobacter cloacae; Enterobacter cloacae CRE1014): 16 µg/mL (≈ 10.7 µM) | MIC (Enterobacter cloacae; Enterobacter cloacae CRE1015): 32 µg/mL (≈ 21.4 µM) | MIC (Enterobacter cloacae; Enterobacter cloacae CRE1016): 16 µg/mL (≈ 10.7 µM) | MIC (Enterobacter cloacae; Enterobacter cloacae CRE1017): 32 µg/mL (≈ 21.4 µM) | MIC (Escherichia coli; Escherichia coli ATCC 25922): 4 µg/mL (≈ 2.68 µM) | MIC (Escherichia coli; Escherichia coli CRE1006, carbapenem-resistant clinical isolate): 4 µg/mL (≈ 2.68 µM) | MIC (Escherichia coli; Escherichia coli M6, carbapenem- and colistin-resistant clinical isolate): 8 µg/mL (≈ 5.36 µM) | MIC (Escherichia coli; Escherichia coli M10, carbapenem- and colistin-resistant clinical isolate): 4 µg/mL (≈ 2.68 µM) | MIC (Escherichia coli; Escherichia coli M11, carbapenem- and colistin-resistant clinical isolate): 4 µg/mL (≈ 2.68 µM) | MIC (Klebsiella pneumoniae; Klebsiella pneumoniae ATCC 700603): 8 µg/mL (≈ 5.36 µM) | MIC (Klebsiella pneumoniae; Klebsiella pneumoniae CRE 1007): 8 µg/mL (≈ 5.36 µM) | MIC (Klebsiella pneumoniae; Klebsiella pneumoniae CRE1008): 8 µg/mL (≈ 5.36 µM) | MIC (Klebsiella pneumoniae; Klebsiella pneumoniae CRE1011): 8 µg/mL (≈ 5.36 µM) | MIC (Klebsiella pneumoniae; Klebsiella pneumoniae CRE1012): 8 µg/mL (≈ 5.36 µM) | MIC (Staphylococcus aureus; Staphylococcus aureus ATCC 29737): >64 µg/mL | MIC (Staphylococcus aureus; Staphylococcus aureus ATCC 43300): >64 µg/mL | MIC (Bacillus cereus): >64 µg/mL | potency compared with dynobactin and darobactin (Enterobacteriaceae; against Enterobactericeae): more potent than dynobactin and has comparable potency to darobactin | MIC values (Enterobacteriaceae; several carbapenamase-resistant Enterobacteriaceae (CRE)): 4 to 8 µg/mL | MIC (Salmonella entereditis): 8 µg/mL (≈ 5.36 µM) | MIC (Salmonella typhimurium): 8 µg/mL (≈ 5.36 µM) | MIC (Shigella flexneri): 2 µg/mL (≈ 1.34 µM) | bactericidal effect: reduction in bacteria count (E. coli M6 [1]; at 8×MIC): 3 log | bactericidal effect: reduction in bacteria count (E. coli M6 [1]; at both 4× and 8×MIC): 3 log | level at which resistance development halted (E. coli M6 [2]; E. coli): 4 ×MIC | period over which resistance development occurred (E. coli M6 [2]; E. coli): 6 to 8 days | MIC of strains obtained by serial passage (E. coli M6 [2]; [5]): 32 µg/mL | resistance of strains obtained by serial passage (E. coli M6 [2]; [5]): ~4 fold | cytotoxicity: concentration up to which no cytotoxicity was shown (HepG2 human cells): > 256 µg/mL | decrease in colony count relative to saline control, blood (E. coli M6 [3]; [6]): 7 log | decrease in colony count relative to saline control, liver (E. coli M6 [3]; [6]): 4 log | decrease in colony count relative to saline control, peritoneal fluid (E. coli M6 [3]; [6]): 6 log | reduction in bacteria burden, kidney (E. coli M6 [3]; [6]): 2 log | reduction in bacteria burden, spleen (E. coli M6 [3]; [6]): 2 log | in vivo efficacy compared with colistin (E. coli M6 [3]; both at 5 mg/kg, single i.p. dose): comparable efficacy to colistin

RGEGWVRAYWAKRF [Compound 26]
MIC (Enterococcus faecalis): >64 µg/mL | MIC (Acinetobacter baumannii; Acinetobacter baumanii ATCC 19606, Table 14, preliminary screening): >64 µg/mL | MIC (Enterobacter cloacae; Enterobacter cloacae, strain not given, Table 14, preliminary screening): >64 µg/mL | MIC (Escherichia coli; Escherichia coli ATCC 25922, Table 14, preliminary screening): >64 µg/mL | antibacterial activity [4]: not active | MIC (Klebsiella pneumoniae; Klebsiella pneumoniae ATC 700603, Table 14, preliminary screening): >64 µg/mL | MIC (Staphylococcus aureus; Staphylococcus aureus ATCC 29737, Table 14, preliminary screening): >64 µg/mL
